Assay results as given in paper PMC11866186, “Novel Benzimidazole–Oxadiazole Derivatives as Anticancer Agents with VEGFR2 Inhibitory Activity: Design, Synthesis, In Vitro Anticancer Evaluation, and In Silico Studies” (ACS Omega, 2025).
Like-named read-outs stand apart in the source and are kept apart here.

Tests used:
MCF-7 cell line = experiment: MTT assay, MCF-7 cells; type: cell-based, human; settings: read-out: IC50 against MCF-7
Description: (§1) The synthesized compounds 4a–4s were screened for their in vitro anticancer activity via the standard MTT assay using three human tumor cell lines, namely, the human lung adenocarcinoma cell line (A549), the human breast cancer cell line (MCF-7), and the human pancreas cell line (PANC-1). Cisplatin was used as a reference drug. […] When the structures of the compounds are evaluated, it is seen that the compounds are derived from two different sources. There are hydroxyl and methoxy substituents on the phenyl ring attached to the benzimidazole. It has also been derivatized using different groups on the phenyl ring close to oxadiazole. When the activities in the PANC-1 cell line are evaluated, it is seen that the activity of compounds bearing the 2,4-dichloro substituent is especially high.
(§2) Many analyses are performed to determine cell proliferation. MTT analysis is one of the viability determination tests. According to the working mechanism of the method, the dye containing the tetrazolium ring reacts with the dehydrogenase enzymes in the cells, only to be reduced and broken down by the metabolic cells, turning into water-insoluble formazan crystals. Color changes associated with mitochondrial activity and resulting from the addition of a solvent as a result of the reaction are measured in the microplate reader as optical density data values.[30] Cells were planted in flat-bottomed, 96-well, sterile, lidded, disposable microplates with 1 × 10^4 cells per well in 200 μL of appropriate medium and were allowed to adhere to the plate bottom by incubating for 24 h. At the end of 24 h, 100 μL of medium was withdrawn, and test substances at different concentrations, prepared in 100 μL, were added. Following the substance application, after a 24 h incubation period, 20 μL of stock MTT solution (MTT solution dissolved in 5 mg/mL PBS and filtered before application) was added to each well and protected from light, and the incubation continued for 3 h. Then, the media of the cells were completely withdrawn, and 100 μL of DMSO was added to dissolve the formazan crystals. After shaking in the dark for 15 min, the optical densities (absorbance) of the color changes at 540–570 and 650 nm reference wavelengths were read in the microplate reader. The data were calculated and created in Microsoft Office Excel. For this purpose, first, the blind well value and the control groups of colored substances were removed from the optical readings. The averages of optical densities and % viability values were made from Excel formula calculations, and the results were discussed. The viability of the control group was assumed to be 100%, and all other viability values were calculated based on this (series were run in n = 5 replicates).

hTERT-HPNE cell line = experiment: MTT assay, normal pancreas hTERT-HPNE cells; type: cell-based; settings: normal human pancreas cells, 24 h, read-out: IC50 against hTERT-HPNE
Description: (§3) By comparing the compounds’ cytotoxic effects against tumor cell lines and normal cell lines, the drug safety parameter for the anticancer activity of the compounds was evaluated, thereby confirming their cytoprotective qualities. In this study, normal human lung (CCD-19Lu) and normal human pancreas (hTERT-HPNE) cell lines were used as controls. The selectivity index (SI) calculated for the compounds tested scales the IC50 values of the compounds against various tumor cell lines with the IC50 values against normal cell lines (Table 2). […] The differential selectivity indices underscore the importance of targeted therapeutic strategies and the potential for these compounds to provide selective anticancer effects with reduced toxicity to normal cells.
as §2

PANC-1 cell line = experiment: MTT assay, PANC-1 cells; type: cell-based, human; settings: MTT, 24 h, read-out: IC50 against PANC-1
Description: Cisplatin was used as a reference drug. […] There are hydroxyl and methoxy substituents on the phenyl ring attached to the benzimidazole. It has also been derivatized using different groups on the phenyl ring close to oxadiazole.
as §2

CCD-19Lu cell line = experiment: MTT assay, normal lung CCD-19Lu cells; type: cell-based; settings: normal human lung cells, 24 h, read-out: IC50 against CCD-19Lu
Description: as §3, §2

A549 cell line = experiment: MTT assay, A549 cells; type: cell-based, human; settings: MTT, 24 h, read-out: IC50 against A549
Description: as §1, §2

Molecule | IC50 (MCF-7 cell line; Homo sapiens, MCF7, 24 h) | IC50 (hTERT-HPNE cell line) | IC50 (PANC-1 cell line; Homo sapiens, PANC-1, 24 h) | IC50 (CCD-19Lu cell line; CCD 19Lu) | IC50 (A549 cell line; Homo sapiens, A549) | IC50 (MCF-7 cell line; 24 h) | IC50 (PANC-1 cell line) | IC50 (CCD-19Lu cell line) | IC50 (A549 cell line)
O=C(CSc1nnc(-c2ccc3nc(-c4ccc(O)cc4)[nH]c3c2)o1)c1ccc(Cl)cc1 [4c, 2-((5-(2-(4-Hydroxyphenyl)-1H-benzimidazol-6-yl)-1,3,4-oxadiazol-2-yl)thio)-1-(4-chlorophenyl)-ethanone] | 6.1 µM | 21.5 µM | 17.7 µM | 16.3 µM | 6.3 µM | – | – | – | –
2-((5-(2-(4-Hydroxyphenyl)-1H-benzimidazol-6-yl)-1,3,4-oxadiazol-2-yl)thio)-1-(4-methylphenyl)-ethanone [4b] | – | 86.8 µM | – | – | – | 17.4 µM | 33.1 µM | 40.3 µM | 5.1 µM
N.N.[Cl][Pt][Cl] [cisplatin, reference compound] | – | 30.6 µM | – | – | – | 14.7 µM | 28.8 µM | 22.6 µM | 19.7 µM
COc1ccc(-c2nc3ccc(-c4nnc(SCC(=O)c5ccc(F)cc5)o4)cc3[nH]2)cc1 [4m, 2-((5-(2-(4-Methoxyphenyl)-1H-benzimidazol-6-yl)-1,3,4-oxadiazol-2-yl)thio)-1-(4-florophenyl)-ethanone] | 36.9 µM | 28.6 µM | 41.1 µM | 20.2 µM | 25.3 µM | – | – | – | –
COc1ccc(-c2nc3ccc(-c4nnc(SCC(=O)c5ccc(Br)cc5)o4)cc3[nH]2)cc1 [4n, 2-((5-(2-(4-Methoxyphenyl)-1H-benzimidazol-6-yl)-1,3,4-oxadiazol-2-yl)thio)-1-(4-bromophenyl)-ethanone] | 28.9 µM | 36.2 µM | 29.5 µM | 36.8 µM | 19.6 µM | – | – | – | –
O=C(CSc1nnc(-c2ccc3nc(-c4ccc(O)cc4)[nH]c3c2)o1)c1ccc(Cl)cc1Cl [4h, 2-((5-(2-(4-Hydroxyphenyl)-1H-benzimidazol-6-yl)-1,3,4-oxadiazol-2-yl)thio)-1-(2,4-dichlorophenyl)-ethanone] | 15.7 µM | 32.9 µM | 26.7 µM | 30.3 µM | 14.6 µM | – | – | – | –
O=C(CSc1nnc(-c2ccc3nc(-c4ccc(O)cc4)[nH]c3c2)o1)c1ccccc1 [4a, 2-((5-(2-(4-Hydroxyphenyl)-1H-benzimidazol-6-yl)-1,3,4-oxadiazol-2-yl)thio)-1-phenyl-ethanone] | 39.5 µM | 26.2 µM | 42.2 µM | 46.1 µM | 63.2 µM | – | – | – | –
2-((5-(2-(4-Methoxyphenyl)-1H-benzimidazol-6-yl)-1,3,4-oxadiazol-2-yl)thio)-1-(4-methylphenyl)-ethanone [4k] | – | 29.3 µM | – | – | – | 50.2 µM | 82 µM | 90.4 µM | 74.7 µM
O=C(CSc1nnc(-c2ccc3nc(-c4ccc(O)cc4)[nH]c3c2)o1)c1ccc(O)c(O)c1 [4i, 2-((5-(2-(4-Hydroxyphenyl)-1H-benzimidazol-6-yl)-1,3,4-oxadiazol-2-yl)thio)-1-(3,4-dihydroxyphenyl)-ethanone] | 16.5 µM | 10.1 µM | 23.8 µM | 13.9 µM | 21.1 µM | – | – | – | –
COc1ccc(-c2nc3ccc(-c4nnc(SCC(=O)c5ccc(F)cc5F)o4)cc3[nH]2)cc1 [4p, 2-((5-(2-(4-Methoxyphenyl)-1H-benzimidazol-6-yl)-1,3,4-oxadiazol-2-yl)thio)-1-(2,4-diflorophenyl)-ethanone] | 37.1 µM | 20.4 µM | 32.6 µM | 14.7 µM | 14.9 µM | – | – | – | –
O=C(CSc1nnc(-c2ccc3nc(-c4ccc(O)cc4)[nH]c3c2)o1)c1ccc(F)cc1F [4g, 2-((5-(2-(4-Hydroxyphenyl)-1H-benzimidazol-6-yl)-1,3,4-oxadiazol-2-yl)thio)-1-(2,4-diflorophenyl)-ethanone] | 30.7 µM | 17.1 µM | 36.6 µM | 31.8 µM | 16.8 µM | – | – | – | –
N#Cc1ccc(C(=O)CSc2nnc(-c3ccc4nc(-c5ccc(O)cc5)[nH]c4c3)o2)cc1 [4f, 2-((5-(2-(4-Hydroxyphenyl)-1H-benzimidazol-6-yl)-1,3,4-oxadiazol-2-yl)thio)-1-(4-cyanophenyl)-ethanone] | 45.6 µM | 74.9 µM | 60.4 µM | 68.8 µM | 50.7 µM | – | – | – | –
O=C(CSc1nnc(-c2ccc3nc(-c4ccc(O)cc4)[nH]c3c2)o1)c1ccc(Br)cc1 [4e, 2-((5-(2-(4-Hydroxyphenyl)-1H-benzimidazol-6-yl)-1,3,4-oxadiazol-2-yl)thio)-1-(4-bromophenyl)-ethanone] | 95.2 µM | 11.3 µM | 83.8 µM | 95.3 µM | 96.1 µM | – | – | – | –
O=C(CSc1nnc(-c2ccc3nc(-c4ccc(O)cc4)[nH]c3c2)o1)c1ccc(F)cc1 [4d, 2-((5-(2-(4-Hydroxyphenyl)-1H-benzimidazol-6-yl)-1,3,4-oxadiazol-2-yl)thio)-1-(4-florophenyl)-ethanone] | 10.1 µM | 6.8 µM | 33.3 µM | 5.2 µM | 10.3 µM | – | – | – | –
COc1ccc(-c2nc3ccc(-c4nnc(SCC(=O)c5ccc(Cl)cc5)o4)cc3[nH]2)cc1 [4l, 2-((5-(2-(4-Methoxyphenyl)-1H-benzimidazol-6-yl)-1,3,4-oxadiazol-2-yl)thio)-1-(4-chlorophenyl)-ethanone] | 22.6 µM | 19.5 µM | 42.1 µM | 47.8 µM | 49.1 µM | – | – | – | –
COc1ccc(-c2nc3ccc(-c4nnc(SCC(=O)c5ccc(C#N)cc5)o4)cc3[nH]2)cc1 [4o, 2-((5-(2-(4-Methoxyphenyl)-1H-benzimidazol-6-yl)-1,3,4-oxadiazol-2-yl)thio)-1-(4-cyanophenyl)-ethanone] | 49.2 µM | 64.2 µM | 70.9 µM | 48.4 µM | 65.2 µM | – | – | – | –
COc1ccc(-c2nc3ccc(-c4nnc(SCC(=O)c5ccccc5)o4)cc3[nH]2)cc1 [4j, 2-((5-(2-(4-Methoxyphenyl)-1H-benzimidazol-6-yl)-1,3,4-oxadiazol-2-yl)thio)-1-phenyl-ethanone] | 53.7 µM | 93.6 µM | 95.7 µM | 95.2 µM | 99.1 µM | – | – | – | –
